Where a SMILES comes first, the peptide text is derived from it. The star is where a group is joined. Cbz = O=C(OCc1ccccc1)*; CH2F = FC*

These results are taken from patent US20120076785A1, “METHOD FOR INHIBITING NEURODEGENERATION” (GENENTECH, INC., priority 2009, published 2012).

For one experiment, the system named is commissural neurons. The experiment in a line: dorsal spinal cord survival assay (commissural explant cultures). Format: cell-based, rat. As to the method: To examine functional roles of DR6 in axonal degeneration and programmed cell death of commissural neurons, an RNAi-based dorsal spinal cord survival assay (Kennedy et al., Cell, 78:425-435 (1994); Wang et al., supra, 1999) was conducted (see FIG. 3). E13 rat or E11.5 mouse embryos were placed in L15 medium (Gibco) and siRNAs (IDT) together with green fluorescent protein (“GFP”)-encoding plasmids were injected into the neural tubes. The siRNAs and plasmids were then delivered to dorsal progenitor cells by electroporation. Dorsal spinal cord explants were dissected out, embedded into a 3D-collagen gel matrix, and cultured in Opti-MEM/F12 medium (Invitrogen) with recombinant netrin-1 ([…]) and 5% horse serum (Sigma) at 37° C. in a 5% CO2 environment. Within 16 hours in response to chemo-attractant netrin-1, commissural axons grow out of the explant into the collagen matrix gel (Kennedy et al., supra, 1994). Commissural axons are visualized by GFP fluorescence by observation using an inverted microscope.
Materials and methods used to generate the data shown in this figure are as follows. To investigate physiological roles of DR6 receptor in axonal degeneration and programmed cell death of commissural neurons, a dorsal spinal cord survival assay according to protocols known in the art (Kennedy et al., Cell 78:425-435 (1994); Wang et al., Nature 401:765-769 (1999)) was performed (with data shown in FIG. 4B). E13 rat embryos were placed in L15 medium (Gibco) and injected into their neural tubes with the following siRNA constructs (FIG. 4B):
Control non-targeting, or targeting DR6 siRNA #2, or targeting DR6 siRNA #3 (IDT) together with either wild-type or mis-match DR6 cDNA and GFP-encoding plasmids. DR6 cDNA and GFP cDNA were subcloned into pCAGGS vector backbone (commercially available from BCCM/LMBP). siRNAs and plasmids were then delivered to dorsal progenitor cells by electroporation. Dorsal spinal cord explants were then dissected out, embedded into a 3D collagen gel matrix and cultured in Opti-MEM/F12 medium (Invitrogen) with recombinant netrin-1 and 5% horse serum (Sigma) at 37° C. in a 5% CO2 environment. Within 16 hours in response to chemo-attractant netrin-1 commissural axons grow out of the explant into the collagen matrix gel (Kennedy et al., Cell 78:425-435 (1994). Commissural axons are visualized by GFP fluorescence by observation using inverted microscope. After 48 hours in culture in the absence of trophic factor support derived from the floorplate, commissural neurons undergo programmed cell death and their axons degenerate (Wang et al., Nature, 401:765-769 (1999)) (FIG. 4B). However, the axonal degeneration program can be blocked by introduction of a targeting DR6-specific siRNA #3 (FIG. 4B). The specific, on-target effect of DR6-specific siRNA #3 is further confirmed in a rescue experiment in which axonal degeneration phenotype is restored by co-expression of the siRNA#3-resistant mis-match DR6 cDNA construct together with DR6 siRNA #3 (FIG. 4B). Presented experimental evidence establishes that DR6 receptor function is required for axonal degeneration and death of commissural neurons upon withdrawal from their intermediate target, the floorplate of the spinal cord.
A dorsal spinal cord survival assay (as described in Example 2 above) was conducted using anti-DR6 antibodies. Microscopic observation (using green fluorescence channel for GFP) was employed to visualize commissural axons. […]

Another experiment relates to sensory axons. The experiment in a line: NGF deprivation assay in Campenot chambers (local sensory axon degeneration). The conditions noted are these: for sensory axonal degeneration induced by NGF withdrawal: 30 μg/ml hDR6-ECD-Fc in axonal compartment, 0 to 24 hours. Format: cell-based, mouse. The method, then:
Materials and methods used to generate the data shown in this figure are as follows. To examine whether ligand is required for DR6 function in sensory axonal degeneration, a compartmented culture analysis of sensory axon growth and degeneration was carried out as follows. A Campenot nerve cell chamber system was used to isolate neuronal processes (axons) from the cell bodies in different compartments (separate fluid environments), analogous to neuronal cell bodies in one location of the nervous system projecting their axons to a distal target in another location. The assay was carried out as originally described by Campenot (Campenot et al., J. Neurosci. 11(4): 1126-39 (1991)) with the following modifications. Briefly, 35-mm tissue culture dishes were coated with PDL/Laminin and scratched with a pin rake (Tyler Research) to generate tracks, as illustrated for example in FIGS. 1 and 4 of Campenot et al., supra.
A drop of culture medium (Neurobasal medium with B27 supplement, 25 ng/ml of NGF, and 4 g/L of methylcellulose) was placed on the scratched substratum. A Teflon divider (Tyler Research) was seated on silicone grease and a dab of silicone grease was placed at the mouth of the center slot. Dissociated sensory neurons derived from E12.5 mouse DRGs were suspended in methylcellulose-thickened medium and loaded into a disposable sterile syringe fitted with a 22-gauge needle. This cell suspension was injected into the center slots of each compartmented dish under the dissecting microscope. The neurons were allowed to settle overnight. […]
To trigger local axonal degeneration, NGF-containing medium from axonal compartments was substituted with neurobasal medium with an NGF blocking antibody (anti-NGF, Genentech, Inc., 20 ug/ml). Zero hours, 6 hours, or 24 to 48 hours following NGF deprivation, sensory neurons were fixed in 4% PFA for 30 minutes at room temperature and processed for immunofluorescence staining with axonal marker TUJ-1 (Covance, 1:500 dilution) to visualize degenerating axons by fluorescence microscopy (FIG. 11B) (as above described in Example 7). […]
To examine whether ligand is required for DR6 function in axonal degeneration program triggered by NGF withdrawal, 30 μg/ml of hDR6-ECD-Fc immunoadhesin protein (described in Example 3 above) or 30 μg/ml of a control Fc (Genentech, Inc.) was included together with anti-NGF treatment in axonal compartments of Campenot Chambers. Zero to 24 hours after NGF deprivation, axons in Campenot Chambers were fixed with 4% PFA/PBS and visualized by immuno-fluorescence staining with TUJ-1 (1:500, Covance)/secondary antibody conjugated to a fluorescence group Alexa 488 (Molecular Probes, BD) (FIG. 11B). […]

The subject of experiment [1] is DR6-AP binding sites on BAX null sensory axons. Nature of the experiment: in situ DR6-AP sensory axon binding assay. The experiment is classed as cell-based, mouse. The following applies: BACE inhibitor 1 uM; BAX null E12.5 sensory axons. As to the method: For the in situ DR6-AP sensory axon binding assay, either wild-type or Bax null sensory explants were cultured in Neurobasal medium/B27 (Invitrogen) as outlined in the Examples 7-8 above, with 50 ng/mlNGF (Roche). Two days post-plating, DRG explants were either left untreated or deprived from NGF as described above in Examples 7-8. Bax inhibitory peptide was added where indicated on FIG. 12B (10 uM, Bax-V5, Tocris). Twelve hours post-NGF deprivation, DRG explants were washed twice with the binding buffer (HBSS, Gibco Cat. No. 14175-095, with 0.2% BSA, 0.1% NaN3, 5 mM CaCl2, 1 mM MgCl2, 20 mM HEPES, pH=7.0). AP binding assay was then carried out by making a 1:1 mixture of DR6-AP conditioned medium and the binding buffer (or control AP conditioned medium and the binding buffer), which was applied directly to DRG explants in 8-well culture slides (Becton, Dickinson and Company) and incubated for 90 minutes at room temperature.
Following the incubation, unbound DR6-AP proteins were washed away by rinsing DRG explants five times with the binding buffer. DRG explants were then fixed with 3.7% formaldehyde diluted in PBS, for 12 minutes at room temperature. The remaining formaldehyde was removed by rinsing DRG explants 3 times with HBS buffer (20 mM HEPES pH=7.0, 150 mM NaCl). Endogenous AP activity was blocked by heat inactivation at 65° C. in HBS buffer for 30 minutes. […]

For experiment [2], the target named is p75 (as used in the ELISA and in general statements). The experiment in a line: ELISA, format not described (data not shown).

With “hDR6-ECD-Fc: human DR6 extracellular domain sequence fused with Fc, SEQ ID NO: 4”, the commissural axon degeneration entry in the experiment on commissural neurons (30 μg/ml and 10 μg/ml hDR6-ECD-Fc, 48 hours) is recorded as “delayed”. Also, the “sensory axonal degeneration induced by NGF withdrawal” value in the experiment on sensory axons is “delayed the onset of axonal degeneration”; in the experiment on sensory axons (listed as DR6-Fc), “delayed”.

Take “5′-CAAUAGGUCAGGAAGAUGGCU-3′ [DR6-specific siRNA #3]”: the “axonal degeneration of commissural neurons” value with commissural neurons (siRNA electroporated, 48 hours in culture without floorplate trophic support) is given as “blocked”.

Take `CC[C@H](C)[C@H](NC(=O)OCc1ccccc1)C(=O)N[C@@H](CCC(=O)OC)C(=O)N[C@H](C(=O)N[C@@H](CC(=O)OC)C(=O)CF)[C@@H](C)O` [Z-IETD-FMK] (Cbz-IE(OMe)TD(OMe)-CH2F): the “axonal degeneration after NGF deprivation” value with sensory axons (24 hours anti-NGF, SP 600125 1 uM, Z-IETD-FMK 10 uM, Z-DEVD-FMK 10 uM) is given as “delayed”.

On to (L)-HIV-TAT48-57-PP-JBD20 [L-JNK-I], for which the “stereotyped degeneration of commissural neurons in DSC explant cultures” value with commissural neurons (JNK inhibitor at 10 μM, 48 hr, no trophic factor, listed as L-JNKI-1) was “largely blocks stereotyped degeneration”. Further, in the experiment on commissural neurons (peptide JNK inhibitor at 1 μM), the “axonal degeneration of commissural neurons” value is recorded as “partially blocked axonal degeneration”.

As for “Abeta: recombinant human Beta amyloid amino acids 1-42, Chemicon”, in the experiment on commissural neurons (Abeta 1-42 3 μM added 24 hours after plating with BACE inhibitor 1 uM), the “induction of commissural axonal degeneration” value was “axonal degeneration triggered”.

Consider OM99-2, for which the “axonal degeneration after NGF deprivation” value with sensory axons (BACE inhibitor 1 uM) is reported as “blocked”. In addition, the “disappearance of DR6-AP binding sites from sensory axons following NGF withdrawal” value in experiment [1] is “block the disappearance of DR6-AP binding sites”.

Take “APP (as used in the p75 ELISA) (from UniProt P05067 18-286) (ligand)”: the EC50 in experiment [2] turned out to be 300 nM.

The EC50 is the concentration giving half of the maximal effect. Read a low EC50 as an effect from little substance.
